# Test results from PubChem BioAssay (NCI).
# Values joined by “and” are separate entries in the source; they are usually repeats but may differ in a detail not shown here. Identical values can stand only once.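 These data come from cells grown in 96-well plates and exposed to compound for 48 hours at five concentrations. GI50 = concentration required for 50% inhibition of growth. TGI is the concentration that stops growth completely.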
# Experiments:
# Test in all cases: NCI anticancer screen, dose series, 48 h
# HCC-2998 colon = test system: HCC-2998 colon
# MDA-MB-231 breast = test system: MDA-MB-231 breast
# NCI-H226 lung = test system: NCI-H226 lung
# NCI-H23 lung = test system: NCI-H23 lung
# NCI-H460 lung = test system: NCI-H460 lung
# SNB-75 CNS = test system: SNB-75 CNS
# TK-10 renal = test system: TK-10 renal
# UO-31 renal = test system: UO-31 renal
Compound,TGI (HCC-2998 colon),TGI (MDA-MB-231 breast),TGI (NCI-H226 lung),TGI (NCI-H23 lung),TGI (NCI-H460 lung),TGI (SNB-75 CNS),TGI (TK-10 renal),TGI (UO-31 renal),GI50 (HCC-2998 colon),GI50 (MDA-MB-231 breast),GI50 (NCI-H226 lung),GI50 (NCI-H23 lung),GI50 (NCI-H460 lung),GI50 (SNB-75 CNS),GI50 (TK-10 renal),GI50 (UO-31 renal)
COc1cc2c(cc1OC)[C@H]1C(=O)c3cc4c(cc3[C@H]1N(C)C2=O)OCO4,> 100 µM,> 100 µM,> 100 µM,> 74.1 µM,> 100 µM,> 100 µM,> 100 µM,> 39.3 µM,–,–,–,–,–,–,–,–
Cc1cc2c(cc1Cl)SC1=NN(C)C(c3ccccc3O)N1S2(=O)=O (stereo not drawn),> 100 µM,> 100 µM,> 100 µM,> 100 µM,> 100 µM,> 100 µM,> 100 µM,> 100 µM,65.5 µM,60.3 µM,> 100 µM,> 100 µM,37.4 µM,> 100 µM,82.1 µM,53.7 µM
Cc1cc(N)c2ccccc2[n+]1CCCCCCCCCC[n+]1c(C)cc(N)c2ccccc21,4.52 µM and 2.76 µM and 9.8 µM,> 11.5 µM and 12.7 µM,> 50 µM and 22.7 µM and 5.29 µM,> 12.4 µM and 3.96 µM and 3.89 µM,0.516 µM and 1.55 µM,6.77 µM and 6.72 µM and 11 µM,7.63 µM and 15.5 µM and 24.3 µM,> 50 µM and 12.9 µM and 14 µM,0.253 µM,0.505 µM,0.576 µM and 1.11 µM,0.236 µM and 0.484 µM,0.121 µM,0.212 µM and 0.249 µM,0.684 µM and 3.13 µM,0.954 µM and 2.84 µM
COc1ncnc2c(-c3ccco3)cn(COCc3ccccc3)c12,> 50 µM,> 50 µM,> 50 µM,> 50 µM,–,> 50 µM,> 50 µM,–,> 50 µM,> 50 µM,> 50 µM,> 50 µM,–,12.7 µM,17.8 µM,–
CN1CCN(C(=S)SCN2C(=O)c3ccccc3S2(=O)=O)CC1,85.3 µM,> 100 µM,> 100 µM,> 100 µM,96.1 µM,92.1 µM,> 100 µM,> 100 µM,30.9 µM,35.3 µM,> 100 µM,35.1 µM,17.8 µM,24.5 µM,43.4 µM,94.6 µM
Cc1ccc(OCCCCCCNCCO)c(C)c1,30.2 µM,25.5 µM,32.9 µM,35.4 µM,30.8 µM,20.1 µM,30 µM,26.4 µM,14.7 µM,9.11 µM,15.1 µM,15.5 µM,14.9 µM,6.47 µM,16 µM,12.1 µM
CN1CC(C(=O)NC2(C)OC3(O)C4CCCN4C(=O)C(Cc4ccccc4)N3C2=O)C=C2c3cccc4[nH]cc(c34)CC21 (stereo not drawn),–,45.5 µM,95.5 µM,46.9 µM,–,> 100 µM,41.4 µM,77.9 µM,–,–,–,–,–,–,–,–
O=c1[nH]c2cc(O)ccc2n2cc3c(F)cccc3c12,> 100 µM,> 100 µM,> 100 µM,> 100 µM,> 100 µM,> 100 µM,> 100 µM,> 100 µM,> 24.3 µM,6.42 µM,2.04 µM,3.86 µM,0.451 µM,1.76 µM,> 100 µM,0.995 µM
O=[N+]([O-])c1cccc(-c2ncc(-c3ccc(Cl)cc3Cl)[nH]2)c1,16.4 µM,30.9 µM,21.6 µM,43.7 µM,30.2 µM,36.9 µM,13.1 µM,15.3 µM,7.36 µM,11.7 µM,8.03 µM,10.6 µM,7.26 µM,8 µM,3.3 µM,5.18 µM
CCCCCCN(CCCCCC)CC(O)c1cccc2ccc(Cl)cc12 (stereo not drawn),8.04 µM,16.2 µM,18.2 µM,19.5 µM,19.6 µM,20.6 µM,25.4 µM,19.7 µM,2.96 µM,4.18 µM,4.89 µM,5.42 µM,6.63 µM,7.43 µM,12.4 µM,4.85 µM
CCCCCCN1C(=O)CN=C1Nc1ccc2cc3ccc(NC4=NCC(=O)N4CCCCCC)cc3nc2c1,3.04 µM,3.87 µM,7.25 µM,5.23 µM,3.83 µM,12.4 µM,3.63 µM,2.54 µM,1.58 µM,1.94 µM,2.48 µM,1.96 µM,1.93 µM,2.15 µM,1.56 µM,1.24 µM
COc1ccc(N(Cc2cc(OC)c(OC)c(OC)c2)C2OC(=O)c3ccccc32)cc1 (stereo not drawn),> 28.5 µM,> 25.4 µM,> 100 µM,> 100 µM,> 60.2 µM,–,> 100 µM,> 100 µM,1.57 µM,1.21 µM,21.8 µM,1.15 µM,0.394 µM,–,–,2.3 µM
OCCCCC#Cc1ccccc1C#Cc1cnccn1,> 100 µM,54.9 µM,> 100 µM,> 100 µM,96.9 µM,53.7 µM,> 100 µM,> 100 µM,33 µM,18 µM,40 µM,40.8 µM,27.4 µM,17.3 µM,47.7 µM,27 µM
COc1ccc(S(=O)(=O)NCCNc2nccc(-c3c(-c4ccccc4)nc4sccn34)n2)cc1,> 100 µM,–,> 100 µM,> 100 µM,> 100 µM,9.54 µM,> 100 µM,> 100 µM,16.1 µM,–,4.66 µM,7.35 µM,1.24 µM,1.82 µM,5.07 µM,0.706 µM
COc1cc(C(=O)/C=C/c2c(C(F)(F)F)nc3sccn23)cc(OC)c1OC,3.13 µM,9.84 µM,5.54 µM,3.89 µM,3.94 µM,4.86 µM,5.12 µM,3.71 µM,1.71 µM,2.92 µM,2.17 µM,1.72 µM,1.65 µM,1.87 µM,2.3 µM,1.87 µM
CN1C(=O)C23CC4=CC=CC(O)C4N2C(=O)C1(CO)SS3 (stereo not drawn),0.351 µM,0.373 µM,0.152 µM,0.348 µM,0.801 µM,0.382 µM,0.34 µM,2.03 µM,–,–,–,–,–,–,–,–
COC1C(CO)OC(n2c3ccccc3c3c4c(c5c6ccccc6[nH]c5c32)C(=O)NC4=O)C(O)C1OC(=O)C(N)CCCCN (stereo not drawn),17.8 µM,8 µM,9.59 µM,> 50 µM,27.1 µM,> 22.8 µM,14.6 µM,5.5 µM,1.57 µM,0.985 µM,0.777 µM,2.79 µM,3.64 µM,3.62 µM,1.81 µM,0.997 µM

Compound,TGI (HCC-2998 colon),TGI (MDA-MB-231 breast),TGI (NCI-H226 lung),TGI (NCI-H23 lung),TGI (NCI-H460 lung),TGI (SNB-75 CNS),TGI (TK-10 renal),TGI (UO-31 renal),GI50 (HCC-2998 colon),GI50 (MDA-MB-231 breast),GI50 (NCI-H226 lung),GI50 (NCI-H23 lung),GI50 (NCI-H460 lung),GI50 (SNB-75 CNS),GI50 (TK-10 renal),GI50 (UO-31 renal)
COC(=O)C1=C(O)C(C(=O)OC)[C@@]2(O)[C@@H](C(=O)OC)C(c3ccc(OC(=O)C(CC(C)C)NC(C)=O)cc3)C[C@@H]1[C@@H]2C(=O)OC (stereo partly drawn),52 µM,> 100 µM,> 100 µM,> 100 µM,> 100 µM,–,> 100 µM,> 100 µM,19 µM,30 µM,43 µM,36.9 µM,41.6 µM,–,57.4 µM,> 100 µM
CC(C)C[C@H](NC(=O)[C@@H](O)[C@H](N)Cc1ccccc1)C(=O)O,> 100 µM,> 100 µM,> 100 µM,> 100 µM,> 100 µM,> 100 µM,> 100 µM,> 100 µM,–,–,–,–,–,–,–,> 100 µM
C=CC[PH+](c1ccccc1)c1ccccc1.C=CC[PH+](c1ccccc1)c1ccccc1.[Cl][Pt][Cl],29.9 µM,10.3 µM,33 µM,23.9 µM,30.1 µM,25.1 µM,32.7 µM,16.4 µM,15 µM,3.23 µM,16.1 µM,9.14 µM,12.8 µM,11 µM,13.4 µM,3.95 µM
Cn1cc(-c2nn3cc(-c4cccs4)nc3s2)c2cc(F)ccc21,33.9 µM,30.6 µM,35.8 µM,> 100 µM,17.1 µM,6.45 µM,19.4 µM,> 100 µM,5.64 µM,3.23 µM,4.56 µM,3.82 µM,1.73 µM,1.29 µM,4.92 µM,1.72 µM
O=C(Nc1ccccc1)Nc1ccccc1CNc1nc(Nc2ccc(OCCN3CCCC3)cc2)ncc1Cl,11.3 µM,5.65 µM,–,19.5 µM,2.22 µM,6.22 µM,15 µM,10.3 µM,5.23 µM,1.49 µM,–,7.29 µM,1.07 µM,1.2 µM,4.36 µM,2.57 µM
CCOc1cccnc1/C=N/NC(N)=S,–,> 100 µM,83 µM,> 100 µM,> 100 µM,> 100 µM,–,26.6 µM,–,3.27 µM,3.6 µM,5.05 µM,3.48 µM,3.84 µM,–,2.9 µM
C#Cc1cccc(Nc2ncnc3ccc(-c4cncc(NS(C)(=O)=O)c4)cc23)c1,11.8 µM,8.06 µM,16.8 µM,10.8 µM,13.6 µM,5.09 µM,–,14.5 µM,2.67 µM,2.2 µM,2.99 µM,2.36 µM,3.46 µM,0.524 µM,–,1.53 µM
CCOC(=O)Cc1csc(NC(=O)C(OC(=O)c2ccc(N)cc2)c2ccccc2)n1 (stereo not drawn),> 100 µM,97.1 µM,> 100 µM,–,> 100 µM,> 100 µM,> 100 µM,> 100 µM,60 µM,31.6 µM,60 µM,–,32.7 µM,45.9 µM,56.6 µM,54.4 µM
O=C(CN=Cc1cccs1)CSC(c1ccccc1)c1ccccc1,93.3 µM,95.6 µM,66 µM,> 100 µM,70.1 µM,> 100 µM,> 100 µM,–,29.3 µM,24.5 µM,24 µM,29.2 µM,24.8 µM,30.5 µM,30.5 µM,–
O=c1c2cc(F)ccc2sc2c(NCCCN3CCCC3)nc3ccccc3c12,3.25 µM,3.2 µM,15.4 µM,3.69 µM,–,3.14 µM,3.65 µM,4.18 µM,1.67 µM,1.55 µM,3.37 µM,1.89 µM,–,1.43 µM,1.99 µM,1.59 µM
CCOC(=O)C1=C(c2ccccc2)N(Cc2ccccc2)C2(O)C=CC(=O)C3C(=O)N(c4ccccc4)C(=O)C132 (stereo not drawn),3.26 µM,4.98 µM,4.87 µM,5.59 µM,3.49 µM,4.62 µM,7.24 µM,–,1.77 µM,2.2 µM,2.25 µM,2.12 µM,1.53 µM,2.1 µM,2.71 µM,–
C=C(C)[C@@H]1CCC[C@]2(C(=O)O)CC[C@]3(C)[C@@H](CC[C@@H]4[C@@]5(C)C/C(=C/c6ccncc6)C(=O)C(C)(C)[C@@H]5CC[C@]43C)[C@@H]12,4.29 µM,24.3 µM,53.4 µM,12.9 µM,4.45 µM,–,29.4 µM,4.65 µM,1.94 µM,3.05 µM,4.66 µM,3.33 µM,1.87 µM,–,3.6 µM,1.74 µM
CN1c2ccccc2C(=O)Nc2cnc(Cl)nc21,> 100 µM,> 100 µM,> 100 µM,> 100 µM,–,> 100 µM,> 100 µM,> 100 µM,–,–,–,–,–,–,–,–
Nc1ncnc2c1ncn2Cc1ccc(C23CC4CC(CC(C4)C2)C3)c(O)c1,82.1 µM,63.1 µM,> 100 µM,–,> 100 µM,40 µM,50.2 µM,> 100 µM,12.4 µM,13.6 µM,> 100 µM,–,11.8 µM,13.4 µM,7.24 µM,90 µM
O=C(NO)C(O)C(O)C(O)C(O)CO (stereo not drawn),> 100 µM,> 100 µM,> 100 µM,> 100 µM,> 100 µM,–,> 100 µM,> 100 µM,> 100 µM,> 100 µM and 58.8 µM,> 71.5 µM and 50.4 µM,> 100 µM,54.6 µM and 37.9 µM,–,> 100 µM,> 100 µM
O=C(CC(C(=O)O)N1CCOCC1)c1ccccc1 (stereo not drawn),–,32.4 µM,> 100 µM,40.6 µM,42.1 µM,83.4 µM,30.1 µM,–,–,–,–,–,–,–,–,–
